# Experimental data published in the supplement of paper PMC8671470.
# Tested on: myeloid leukemia patient primary cells Pat.9
# Test: cell viability (% survival relative to DMSO control); higher = less cytotoxic
# Conditions: 10 nM; 72 h
# Method in brief: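 Thawed mononuclear cells from AML or CML patients were purified on Ficoll and cultured for 72 h in RPMI 1640 with 10% FBS, at 10,000 cells/well, on 384-well plates carrying 70 pre-printed compounds at 1–10,000 nM in five tenfold steps, in duplicate. Viability came from CellTiter-Glo, normalised against DMSO and against 10 μM proteasome inhibitor. Any area under the curve given was derived from log-logistic curve fits in the drc and PharmacoGx R packages, and these fits had four parameters.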
row,SMILES,cell viability [%]
1,Cc1nnc(-c2ccc(N3CCC(Oc4ccccc4C(F)(F)F)CC3)nn2)s1 [MF-438],91.2
2,"CCCCCCCCCCCCC/C=C/[C@@H](O)[C@H](CO)N(C)C [N,N-Dimethylsphingosine]",77.7
3,Nc1nc(O)c2c(CCc3ccc(C(=O)N[C@@H](CCC(=O)O)C(=O)O)cc3)c[nH]c2n1 [Pemetrexed],67.3
4,C=C1NC(=O)c2cc(CN(C)c3ccc(C(=O)N[C@@H](CCC(=O)O)C(=O)O)s3)ccc2N1 [Raltitrexed],84

# Same assay, conditions: 100 nM; 72 h
row,SMILES,cell viability [%]
1,NS(=O)(=O)c1ccc(S(=O)(=O)Nc2cccc3c(Cl)c[nH]c23)cc1 [Indisulam],81.1
2,Cc1nnc(-c2ccc(N3CCC(Oc4ccccc4C(F)(F)F)CC3)nn2)s1 [MF-438],87.2
3,"CCCCCCCCCCCCC/C=C/[C@@H](O)[C@H](CO)N(C)C [N,N-Dimethylsphingosine]",25.2
4,Nc1nc(O)c2c(CCc3ccc(C(=O)N[C@@H](CCC(=O)O)C(=O)O)cc3)c[nH]c2n1 [Pemetrexed],50.7
5,C=C1NC(=O)c2cc(CN(C)c3ccc(C(=O)N[C@@H](CCC(=O)O)C(=O)O)s3)ccc2N1 [Raltitrexed],81.9

# Same assay, conditions: 1000 nM; 72 h
row,SMILES,cell viability [%]
1,NS(=O)(=O)c1ccc(S(=O)(=O)Nc2cccc3c(Cl)c[nH]c23)cc1 [Indisulam],40.9
2,Cc1nnc(-c2ccc(N3CCC(Oc4ccccc4C(F)(F)F)CC3)nn2)s1 [MF-438],69.3
3,"CCCCCCCCCCCCC/C=C/[C@@H](O)[C@H](CO)N(C)C [N,N-Dimethylsphingosine]",21.6
4,Nc1nc(O)c2c(CCc3ccc(C(=O)N[C@@H](CCC(=O)O)C(=O)O)cc3)c[nH]c2n1 [Pemetrexed],> 100
5,C=C1NC(=O)c2cc(CN(C)c3ccc(C(=O)N[C@@H](CCC(=O)O)C(=O)O)s3)ccc2N1 [Raltitrexed],54.5

# Same assay, conditions: 10000 nM; 72 h
row,SMILES,cell viability [%]
1,NS(=O)(=O)c1ccc(S(=O)(=O)Nc2cccc3c(Cl)c[nH]c23)cc1 [Indisulam],24.6
2,Cc1nnc(-c2ccc(N3CCC(Oc4ccccc4C(F)(F)F)CC3)nn2)s1 [MF-438],75.2
3,"CCCCCCCCCCCCC/C=C/[C@@H](O)[C@H](CO)N(C)C [N,N-Dimethylsphingosine]",< 0
4,Nc1nc(O)c2c(CCc3ccc(C(=O)N[C@@H](CCC(=O)O)C(=O)O)cc3)c[nH]c2n1 [Pemetrexed],32.6
5,C=C1NC(=O)c2cc(CN(C)c3ccc(C(=O)N[C@@H](CCC(=O)O)C(=O)O)s3)ccc2N1 [Raltitrexed],72.8

# Tested on: HL-60
# Test: cell viability (% survival relative to DMSO control, bortezomib = 0%); higher = less cytotoxic
# Conditions: 1 nM; 72 h
# Method in brief: (§1)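 In 384-well plates pre-printed with compounds at 1, 10, 100, 1000 or 10000 nM, duplicate wells received cells from 10 AML and 5 CML lines at densities within the linear growth range. The plates stayed at 37 °C with 5% CO2 for 72 h before CellTiter-Glo luminescence was recorded. Each entry is averaged percent survival. Scaling placed vehicle at 100% and a 10 µM positive control at 0%.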
row,SMILES,cell viability [%]
1,NS(=O)(=O)c1ccc(S(=O)(=O)Nc2cccc3c(Cl)c[nH]c23)cc1 [Indisulam],107
2,Cc1nnc(-c2ccc(N3CCC(Oc4ccccc4C(F)(F)F)CC3)nn2)s1 [MF-438],93.6
3,"CCCCCCCCCCCCC/C=C/[C@@H](O)[C@H](CO)N(C)C [N,N-Dimethylsphingosine]",90.6
4,Nc1nc(O)c2c(CCc3ccc(C(=O)N[C@@H](CCC(=O)O)C(=O)O)cc3)c[nH]c2n1 [Pemetrexed],110
5,C=C1NC(=O)c2cc(CN(C)c3ccc(C(=O)N[C@@H](CCC(=O)O)C(=O)O)s3)ccc2N1 [Raltitrexed],108

# Same assay, conditions: 10 nM; 72 h
row,SMILES,cell viability [%]
1,NS(=O)(=O)c1ccc(S(=O)(=O)Nc2cccc3c(Cl)c[nH]c23)cc1 [Indisulam],107
2,Cc1nnc(-c2ccc(N3CCC(Oc4ccccc4C(F)(F)F)CC3)nn2)s1 [MF-438],92.5
3,"CCCCCCCCCCCCC/C=C/[C@@H](O)[C@H](CO)N(C)C [N,N-Dimethylsphingosine]",84.7
4,Nc1nc(O)c2c(CCc3ccc(C(=O)N[C@@H](CCC(=O)O)C(=O)O)cc3)c[nH]c2n1 [Pemetrexed],99.6
5,C=C1NC(=O)c2cc(CN(C)c3ccc(C(=O)N[C@@H](CCC(=O)O)C(=O)O)s3)ccc2N1 [Raltitrexed],127

# Same assay, conditions: 100 nM; 72 h
row,SMILES,cell viability [%]
1,NS(=O)(=O)c1ccc(S(=O)(=O)Nc2cccc3c(Cl)c[nH]c23)cc1 [Indisulam],85.8
2,Cc1nnc(-c2ccc(N3CCC(Oc4ccccc4C(F)(F)F)CC3)nn2)s1 [MF-438],87
3,"CCCCCCCCCCCCC/C=C/[C@@H](O)[C@H](CO)N(C)C [N,N-Dimethylsphingosine]",100
4,Nc1nc(O)c2c(CCc3ccc(C(=O)N[C@@H](CCC(=O)O)C(=O)O)cc3)c[nH]c2n1 [Pemetrexed],113
5,C=C1NC(=O)c2cc(CN(C)c3ccc(C(=O)N[C@@H](CCC(=O)O)C(=O)O)s3)ccc2N1 [Raltitrexed],116

# Same assay, conditions: 1000 nM; 72 h
row,SMILES,cell viability [%]
1,NS(=O)(=O)c1ccc(S(=O)(=O)Nc2cccc3c(Cl)c[nH]c23)cc1 [Indisulam],97.2
2,Cc1nnc(-c2ccc(N3CCC(Oc4ccccc4C(F)(F)F)CC3)nn2)s1 [MF-438],127
3,"CCCCCCCCCCCCC/C=C/[C@@H](O)[C@H](CO)N(C)C [N,N-Dimethylsphingosine]",105
4,Nc1nc(O)c2c(CCc3ccc(C(=O)N[C@@H](CCC(=O)O)C(=O)O)cc3)c[nH]c2n1 [Pemetrexed],31.5
5,C=C1NC(=O)c2cc(CN(C)c3ccc(C(=O)N[C@@H](CCC(=O)O)C(=O)O)s3)ccc2N1 [Raltitrexed],6.78

# Same assay, conditions: 10000 nM; 72 h
row,SMILES,cell viability [%]
1,NS(=O)(=O)c1ccc(S(=O)(=O)Nc2cccc3c(Cl)c[nH]c23)cc1 [Indisulam],37.1
2,Cc1nnc(-c2ccc(N3CCC(Oc4ccccc4C(F)(F)F)CC3)nn2)s1 [MF-438],56.5
3,"CCCCCCCCCCCCC/C=C/[C@@H](O)[C@H](CO)N(C)C [N,N-Dimethylsphingosine]",88.9
4,Nc1nc(O)c2c(CCc3ccc(C(=O)N[C@@H](CCC(=O)O)C(=O)O)cc3)c[nH]c2n1 [Pemetrexed],9.36
5,C=C1NC(=O)c2cc(CN(C)c3ccc(C(=O)N[C@@H](CCC(=O)O)C(=O)O)s3)ccc2N1 [Raltitrexed],6.89

# Tested on: BV-173
# Test: as above
# Conditions: 1 nM; 72 h
# Method in brief: as §1
row,SMILES,cell viability [%]
1,NS(=O)(=O)c1ccc(S(=O)(=O)Nc2cccc3c(Cl)c[nH]c23)cc1 [Indisulam],108
2,Cc1nnc(-c2ccc(N3CCC(Oc4ccccc4C(F)(F)F)CC3)nn2)s1 [MF-438],96.1
3,"CCCCCCCCCCCCC/C=C/[C@@H](O)[C@H](CO)N(C)C [N,N-Dimethylsphingosine]",93
4,Nc1nc(O)c2c(CCc3ccc(C(=O)N[C@@H](CCC(=O)O)C(=O)O)cc3)c[nH]c2n1 [Pemetrexed],89.2
5,C=C1NC(=O)c2cc(CN(C)c3ccc(C(=O)N[C@@H](CCC(=O)O)C(=O)O)s3)ccc2N1 [Raltitrexed],95.6

# Same assay, conditions: 10 nM; 72 h
row,SMILES,cell viability [%]
1,NS(=O)(=O)c1ccc(S(=O)(=O)Nc2cccc3c(Cl)c[nH]c23)cc1 [Indisulam],87.3
2,Cc1nnc(-c2ccc(N3CCC(Oc4ccccc4C(F)(F)F)CC3)nn2)s1 [MF-438],108
3,"CCCCCCCCCCCCC/C=C/[C@@H](O)[C@H](CO)N(C)C [N,N-Dimethylsphingosine]",89.7
4,Nc1nc(O)c2c(CCc3ccc(C(=O)N[C@@H](CCC(=O)O)C(=O)O)cc3)c[nH]c2n1 [Pemetrexed],91.9
5,C=C1NC(=O)c2cc(CN(C)c3ccc(C(=O)N[C@@H](CCC(=O)O)C(=O)O)s3)ccc2N1 [Raltitrexed],163

# Same assay, conditions: 100 nM; 72 h
row,SMILES,cell viability [%]
1,NS(=O)(=O)c1ccc(S(=O)(=O)Nc2cccc3c(Cl)c[nH]c23)cc1 [Indisulam],110
2,Cc1nnc(-c2ccc(N3CCC(Oc4ccccc4C(F)(F)F)CC3)nn2)s1 [MF-438],89.4
3,"CCCCCCCCCCCCC/C=C/[C@@H](O)[C@H](CO)N(C)C [N,N-Dimethylsphingosine]",98.7
4,Nc1nc(O)c2c(CCc3ccc(C(=O)N[C@@H](CCC(=O)O)C(=O)O)cc3)c[nH]c2n1 [Pemetrexed],104
5,C=C1NC(=O)c2cc(CN(C)c3ccc(C(=O)N[C@@H](CCC(=O)O)C(=O)O)s3)ccc2N1 [Raltitrexed],8.17
